# Laboratory results reported in the supplement of paper PMC10326909.
# Test: ESI positive response factor (isotope-corrected peak area per molar concentration) in SFC/ESI/HRMS (area units per M); higher = higher ionization efficiency
# 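Also: standards in acetonitrile/water run in triplicate on a zwitterionic HILIC column, CO2–methanol gradient containing 20 mmol/L ammonium acetate, postcolumn makeup flow, Orbitrap full-scan detection.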
Compound,ESI positive response factor (0.0175 µM),ESI positive response factor (0.035 µM),ESI positive response factor (0.0875 µM),ESI positive response factor (0.175 µM),ESI positive response factor (0.35 µM),also measured
Fc1ccc(Oc2ccnc3cc(Cl)cc(Cl)c23)cc1 [Quinoxyfen],9.87e+17,1.08e+18,9.74e+17,9.43e+17,–,–
CON(C)C(=O)Nc1ccc(Br)c(Cl)c1 [Chlorbromuron],–,4.74e+16,4.82e+16,4.62e+16,5.21e+16,–
COC(=O)CCCCCCCCC(=O)OC [Dimethylsebacate],7.67e+16,7.64e+16,6.02e+16,5.72e+16,–,–
CN(C)CCOC(c1ccccc1)c1ccccc1 [Diphenhydramine],1.59e+17,2.23e+17,2.16e+17,2.35e+17,2.4e+17,ESI positive response factor (0.875 µM): 2.25e+17
CC(C)NCC(O)COc1ccc(C(=O)O)cc1 (centres undefined) [Bisoprolol-M3],1.43e+17,1.76e+17,1.65e+17,1.64e+17,1.6e+17,–
CC(=O)N1CC(O)C[C@H]1C(=O)O (stereo in doubt) [Trans-1-acetyl-4-hydroxy-L-prolin],–,–,1.56e+15,–,6.42e+15,ESI positive response factor (0.875 µM): 6.4e+15; ESI positive response factor (1.75 µM): 6.39e+15
O=c1[nH]sc2ccccc12 [Benzisothiazolinone],–,1.45e+16,1.52e+16,1.36e+16,1.55e+16,–
"CC(O)CN(CCO)CCO (centres undefined) [1-[N,N-Bis(2-hydroxyethyl)amino]-2-propanol]",2.91e+17,3.14e+17,3.24e+17,2.77e+17,2.94e+17,–
NC(=O)N=C(N)N [Guanylurea],–,–,–,–,–,ESI positive response factor (0.244 µM): 2.7e+15; ESI positive response factor (0.61 µM): 2.53e+15; ESI positive response factor (1.22 µM): 2.64e+15
O=c1ccnc[nH]1 [4-Pyrimidinol],1.78e+16,2.97e+16,–,–,–,–
c1ccc(CC2=NCCN2)cc1 [2-Benzylimidazoline],–,–,–,4.79e+15,5.75e+15,ESI positive response factor (0.875 µM): 5.13e+15; ESI positive response factor (1.75 µM): 4.96e+15
CN(C)C(=O)Nc1ccc(Cl)cc1 [Monuron],–,–,–,–,–,ESI positive response factor (0.0122 µM): 2.43e+16; ESI positive response factor (0.0244 µM): 2.85e+16; ESI positive response factor (0.061 µM): 3.31e+16; ESI positive response factor (0.122 µM): 3.07e+16; ESI positive response factor (0.244 µM): 3.26e+16
CCc1cccc(C)c1N(C(=O)CCl)C(C)COC (centres undefined) [Metolachlor],–,–,–,–,–,ESI positive response factor (0.0122 µM): 4.41e+17; ESI positive response factor (0.0244 µM): 5.34e+17; ESI positive response factor (0.061 µM): 5.13e+17
Nc1ccc(S(=O)(=O)c2ccc(N)cc2)cc1 [Dapson],6.07e+16,8.29e+16,8.16e+16,–,–,–
COc1ccc(O)c(C(C)(C)C)c1 [Butylated hydroxyanisole],–,–,3.78e+15,2.82e+15,3.32e+15,ESI positive response factor (0.875 µM): 3.01e+15
"O=C1NCCCN1 [N,N?-Trimethyleneurea]",–,–,–,–,–,ESI positive response factor (0.0122 µM): 2.53e+16; ESI positive response factor (0.0244 µM): 3.89e+16; ESI positive response factor (0.061 µM): 3.96e+16
CN(C)N/N=C1/N=CN=C1C(N)=O [Dacarbazine],–,–,2.45e+15,5.22e+15,–,–
Nc1cnn(-c2ccccc2)c(=O)c1Cl [Chloridazon],7.49e+16,1.01e+17,8.99e+16,–,–,–
"C[NH2+]C[C@H](O)CO [3-Methylamino-1,2-propanediol]",–,–,–,–,–,ESI positive response factor (0.0122 µM): 7.17e+16; ESI positive response factor (0.0244 µM): 4.4e+16; ESI positive response factor (0.061 µM): 6.78e+16; ESI positive response factor (0.122 µM): 6.39e+16; ESI positive response factor (0.244 µM): 7.28e+16; ESI positive response factor (0.61 µM): 6.66e+16

Compound,ESI positive response factor (0.0175 µM),ESI positive response factor (0.035 µM),ESI positive response factor (0.0875 µM),ESI positive response factor (0.175 µM),ESI positive response factor (0.35 µM),also measured
COC(=O)N(OC)c1ccccc1COc1ccn(-c2ccc(Cl)cc2)n1 [Pyraclostrobin],6.62e+17,5.71e+17,5.45e+17,4.73e+17,5.43e+17,–
O=C1CCCN1 [2-Pyrrolidinone],–,–,–,8.26e+15,8.52e+15,ESI positive response factor (0.875 µM): 1.07e+16; ESI positive response factor (1.75 µM): 8.7e+15
Cc1cc2nc3c(=O)[nH]c(=O)nc-3n(CC(O)C(O)C(O)CO)c2cc1C (centres undefined) [Riboflavin],–,–,–,2.66e+15,3.31e+15,ESI positive response factor (0.875 µM): 3.41e+15; ESI positive response factor (1.75 µM): 3.53e+15
NCCCC[C@H](N[C@@H](CCc1ccccc1)C(=O)O)C(=O)N1CCC[C@H]1C(=O)O [Lisinopril],–,–,–,–,–,ESI positive response factor (0.0122 µM): 7.7e+15; ESI positive response factor (0.0244 µM): 1.4e+16; ESI positive response factor (0.061 µM): 1.89e+16; ESI positive response factor (0.122 µM): 1.43e+16; ESI positive response factor (0.244 µM): 1.58e+16
COP(=O)(OC)SCn1c(=O)oc2cc(Cl)cnc21 [Azamethiphos],6.62e+17,7.29e+17,6.44e+17,6.11e+17,–,–
CC(=O)OCC[N+](C)(C)C [Acetylcholine],2.2e+17,1.98e+17,2.4e+17,2.16e+17,2.13e+17,–
NCC1CCC(C(=O)O)CC1 (centres undefined) [Tranexamic acid],–,9.61e+16,6.97e+16,5.79e+16,6.32e+16,ESI positive response factor (0.875 µM): 6.01e+16
OCC[C@@H]1CCCC[NH2+]1 [2-Piperidineethanol],–,–,–,–,–,ESI positive response factor (0.0122 µM): 1.24e+17; ESI positive response factor (0.0244 µM): 1.22e+17; ESI positive response factor (0.061 µM): 9.77e+16; ESI positive response factor (0.122 µM): 1.07e+17; ESI positive response factor (0.244 µM): 1.07e+17
C[N+](C)(C)CCCl [Chlormequate],1.55e+17,1.26e+17,1.95e+17,1.76e+17,1.85e+17,–
C=CC(=O)OCC[N+](C)(C)C [[2-(Acryloyloxy)ethyl]trimethylammonium],–,8.46e+16,6.97e+16,5.79e+16,6.32e+16,ESI positive response factor (0.875 µM): 6.01e+16
NC(N)=NC(N)=NCCc1ccccc1 [Phenformin],2.9e+17,3.42e+17,3.34e+17,3.21e+17,3.4e+17,–
NCC1(CC(=O)O)CCCCC1 [Gabapentin],–,–,–,–,–,ESI positive response factor (0.244 µM): 2.98e+16; ESI positive response factor (0.61 µM): 2.83e+16; ESI positive response factor (1.22 µM): 3.28e+16
"CC(=O)NCCNC(C)=O [N,N'-Ethylenebisacetamide]",–,4.39e+16,4.04e+16,3.9e+16,3.89e+16,–
CC(C)NCC(O)c1ccc(NS(C)(=O)=O)cc1 (centres undefined) [Sotalol],2.28e+17,2.68e+17,2.59e+17,–,–,–
N=c1nc(N2CCCCC2)cc(N)n1O [Minoxidil],–,–,–,–,–,ESI positive response factor (0.0122 µM): 1.59e+17; ESI positive response factor (0.0244 µM): 1.78e+17; ESI positive response factor (0.061 µM): 1.77e+17; ESI positive response factor (0.122 µM): 1.69e+17; ESI positive response factor (0.244 µM): 1.72e+17
NC(=O)C1(N2CCCCC2)CCN(CCCC(=O)c2ccc(F)cc2)CC1 [Pipamperone],4.81e+17,5.01e+17,5.44e+17,5.09e+17,–,–
CCOP(=S)(OCC)Oc1cc(C)nc(C(C)C)n1 [Diazinon],3.13e+16,5.67e+16,3.71e+16,5.13e+16,–,–
CC1(C)CCC(Cc2ccc(Cl)cc2)C1(O)Cn1cncn1 (centres undefined) [Metconazol],–,–,–,–,–,ESI positive response factor (0.0122 µM): 3.22e+17; ESI positive response factor (0.0244 µM): 3.52e+17; ESI positive response factor (0.061 µM): 3.16e+17
CCCCC(CC)CN (centres undefined) [2-Ethyl-1-hexylamine],–,–,–,2.01e+16,1.94e+16,–
